These results are taken from PMC10581904, “Structural basis for abscisic acid efflux mediated by ABCG25 in Arabidopsis thaliana” (Nature Plants, 2023).

For series [1], the target named is T1, ABCG25 (Arabidopsis thaliana, UniProt Q84TH5).
T1 sequence (Q84TH5 1-662): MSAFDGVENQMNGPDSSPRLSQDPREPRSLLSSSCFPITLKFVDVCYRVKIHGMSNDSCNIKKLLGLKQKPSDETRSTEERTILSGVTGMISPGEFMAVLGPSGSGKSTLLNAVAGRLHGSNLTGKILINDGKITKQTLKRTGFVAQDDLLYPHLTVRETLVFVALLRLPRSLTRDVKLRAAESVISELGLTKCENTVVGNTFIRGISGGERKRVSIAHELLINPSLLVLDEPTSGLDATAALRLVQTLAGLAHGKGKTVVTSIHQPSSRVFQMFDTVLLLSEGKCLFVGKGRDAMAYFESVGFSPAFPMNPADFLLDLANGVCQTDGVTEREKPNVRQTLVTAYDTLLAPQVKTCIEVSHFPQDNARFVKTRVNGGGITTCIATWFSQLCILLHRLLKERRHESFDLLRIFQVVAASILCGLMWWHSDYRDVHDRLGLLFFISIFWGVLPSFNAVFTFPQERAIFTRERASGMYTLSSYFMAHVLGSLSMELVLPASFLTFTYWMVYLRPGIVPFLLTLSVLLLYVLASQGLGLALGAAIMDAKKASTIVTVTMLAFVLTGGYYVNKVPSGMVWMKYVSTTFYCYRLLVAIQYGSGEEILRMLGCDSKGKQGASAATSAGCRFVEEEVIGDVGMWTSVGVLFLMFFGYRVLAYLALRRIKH
Briefly: stimulation of ATPase activity (colorimetric Pi release), allosteric sigmoidal fit. The format is biochemical. Also on record: full-length, N-terminal Flag tag, baculovirus / Sf9 cells, homodimer, purified in DDM or digitonin (with CHS extraction).

The target in series [2] is T1, ABCG25. The series can be described thus: [3H]-ABA loading and efflux assays in Sf9 cells. The format is cell-based. Further details: full-length, N-terminal Flag tag, baculovirus / Sf9 cells. The settings on record: 6.6 nM, pH 5.5; labelled compound.
For series [3], the target named is T1, ABCG25. The series can be described thus: ATPase activity in liposomes reconstituted with or without cholesterol. The format is biochemical. Also on record: full-length, N-terminal Flag tag, baculovirus / Sf9 cells, homodimer, purified in DDM or digitonin (with CHS extraction). The following applies: lipid:cholesterol 9:1 (w/w), proteoliposomes; direct action not proven (sterol identity in the cavity not settled).

Substrate in series [4]: Nc1ncnc2c1ncn2[C@@H]1O[C@H](COP(=O)(O)OP(=O)(O)OP(=O)(O)O)[C@@H](O)[C@H]1O
Briefly: ATPase activity (colorimetric Pi release), Michaelis-Menten fit. The format is biochemical, Arabidopsis thaliana. The following applies: 10 mM MgCl2, pH 7.4, 37 °C, detergent micelle (0.01% DDM), no ABA.

Series [5] concerns the molecule itself. The series can be described thus: cryo-EM structure; single particle analysis of purified ABCG25WT in 25 mM HEPES-NaOH pH 7.4, 150 mM NaCl, 0.03% digitonin; apo or with 2 mM ABA; C2 symmetry applied.
Series [6] concerns the molecule itself. The series can be described thus: cryo-EM structure; single particle analysis of purified E232Q ABCG25 in digitonin, incubated with 5 mM ATP and 10 mM MgCl2 on ice for 60 min.

Residue numbers refer to the chain shown, from its start. In names and notes the source's numbering stands.

As usually defined, the EC50 is the midpoint of the concentration-response curve. A low value points to a more potent agent. In turn, `CC1=CC(=O)CC(C)(C)[C@@]1(O)/C=C/C(C)=C/C(=O)O` [ABA, (S)-(+)-Abscisic acid] gave an EC50 at ABCG25 [1] of 680 nM.
Turning to `CC1=CC(=O)CC(C)(C)[C@@]1(O)/C=C/C(C)=C\C(=O)O` [[3H]-ABA], the “residual [3H]-ABA” value at ABCG25 [2] was “residual [^3H]-ABA substantially decreased in cells expressing ABCG25”.
In the case of `CC(C)CCC[C@@H](C)[C@H]1CC[C@H]2[C@@H]3CC=C4C[C@@H](O)CC[C@]4(C)[C@H]3CC[C@]12C` [cholesterol], the ATPase activity result at ABCG25 [3] is on record as “cholesterol was added during liposomes reconstitution, the ATPase activity of ABCG25 was significantly reduced”.

B1: wild-type ABCG25 from Arabidopsis thaliana (natural protein, UniProt Q84TH5 1-662, looked up)
chain: T1 sequence (Q84TH5 1-662)
notes: ABCG25, Arabidopsis thaliana, UniProt Q84TH5, full length; Homodimer of a half-transporter (one NBD and one TMD per chain); No cleavage of the Flag tag is described; the protein was eluted with Flag peptide; also called ABCG25WT; WT
As a reminder, the Km is the concentration of substrate that gives half-maximal velocity. The stoichiometry N is a count of units in the complex or per binding partner. As for B1, in series [4], the Km came to 790 µM. Besides, in series [5], the “stoichiometry N” value worked out at 2.

B2: ABCG25 E232Q catalytic mutant (natural protein, Arabidopsis thaliana, UniProt Q84TH5 1-662, looked up)
chain: T1 sequence (Q84TH5 1-662) with E232Q
notes: ABCG25, Arabidopsis thaliana, UniProt Q84TH5, full length, with E232Q in the Walker B motif of the NBD; Made and purified in the same way as the wild type; incubated with ATP and Mg2+ before grid preparation; also called ABCG25EQ; E232Q ABCG25
As to B2, the “stoichiometry N” value in series [6] was 2.
